Assay results: patent US20060004002A1 (priority 2004, published 2006)
pIC50: −log10 of the molar value.

target: T1, Recombinant human Src (Homo sapiens, UniProt P12931); test: Src tyrosine kinase activity assay with poly E4Y and 32P-ATP; type: biochemical; conditions: poly E4Y, 32P-ATP; NI = no inhibition; read-out: IC50 Value Src
T1 construct: made in house; host or cells: baculovirus-insect cell system
Protocol: Recombinant human Src was expressed using the baculovirus-insect cell system and purified as published (Budde et al., 1993 and 2000). Recombinant Csk and the FGF receptor (FGFr) were expressed as […] fusion proteins using the pGEX expression vector and E. coli, and purified as described (Sun & Budde, 1995).
The tyrosine kinase activity of Src, Csk and FGFr was determined using poly E4Y and ^32P-ATP. Briefly, enzymes were assayed in a reaction mixture […] consisting of 0.15 M EPPS-NaOH (pH 8.0) with 6 mM MgCl2, 0.2 mM γ^32P-ATP (0.2-0.4 mCi/μmol), 10% glycerol, 0.1% Triton X-100, and poly E4Y. Poly E4Y is a synthetic peptide whose phosphorylation is measured in this assay by the addition of the radioactively labeled phosphate from the ATP (Budde et al., 1995). […] When ATP was varied (0, 50, 100 and 250 μM), poly E4Y was kept constant at 150 μg/ml.

| Compound | pIC50 |
| --- | --- |
| CCOc1ccccc1-c1sc2c(NN=Cc3ccccc3F)ncnc2c1C [Compound 78, 2-Fluorobenzaldehyde (6-(2-ethoxyphenyl)-7-methylthieno[3,2-d]pyrimidin-4-yl)hydrazone] | 9.08 |
| CCOc1cc(F)ccc1-c1sc2c(NN=Cc3cccs3)ncnc2c1O [Compound 109, 2-Thiophenecarboxaldehyde (6-(2-ethoxy-4-fluorophenyl)-7-hydroxythieno[3,2-d]pyrimidin-4-yl)hydrazone] | 8.96 |
| C=CCOc1ccccc1-c1sc2c(NN=Cc3ccc(OC)c(O)c3)ncnc2c1C [Compound 80, 3-Hydroxy-4-methoxybenzaldehyde (6-(2-allyloxyphenyl)-7-methylthieno[3,2-d]pyrimidin-4-yl)hydrazone] | 8.19 |
| COc1ccc(C=NNc2ncnc3c(C)c(-c4cccc(N)c4)sc23)cc1O [Compound 12, 3-Hydroxy-4-methoxybenzaldehyde (6-(3-aminophenyl)-7-methylthieno[3,2-d]pyrimidin-4-yl)hydrazone] | 8.92 |
| CCOc1ccccc1-c1sc2c(NN=Cc3cccnc3)ncnc2c1C#N [compound 67] | 8.92 |
| CCOc1ccccc1-c1sc2c(NN=Cc3ccncc3)ncnc2c1C#N [compound 110] | 8.72 |
| Cc1c(-c2ccc(C(N)=O)cc2)sc2c(NN=Cc3ccc(C(=O)O)cc3)ncnc12 [Compound 26, 4-Carboxybenzaldehyde (6-(4-aminocarbonylphenyl)-7-methylthieno[3,2-d]pyrimidin-4-yl)hydrazone] | 7.44 |
| CCOc1ccccc1-c1sc2c(NN=Cc3[nH]cnc3C)ncnc2c1C#N [compound 115] | 8.59 |
| COc1ccc(C=NNc2ncnc3c(C)c(-c4ccc(N)cc4)sc23)cc1O [Compound 10, 3-Hydroxy-4-methoxybenzaldehyde (6-(4-aminophenyl)-7-methylthieno[3,2-d]pyrimidin-4-yl)hydrazone] | 8.06 |
| Cc1c(-c2ccc(CN)cc2)sc2c(NN=Cc3cccs3)ncnc12 [Compound 4, 2-Thiophenecarboxaldehyde (6-(4-aminomethyl)phenyl-7-methylthieno[3,2-d]pyrimidin-4-yl)hydrazone] | 7.55 |
| CCOc1ccccc1-c1sc2c(NN=Cc3ccc(C(=O)O)cc3)ncnc2c1CO [Compound 72, 4-Carboxybenzaldehyde (6-(2-ethoxyphenyl)-7-hydroxymethylthieno[3,2-d]pyrimidin-4-yl)hydrazone] | 7.49 |
| Cc1c(-c2cccc(C(N)=O)c2)sc2c(NN=Cc3cccs3)ncnc12 [Compound 20, 2-Thiophenecarboxaldehyde (6-(3-aminocarbonylphenyl)-7-methylthieno[3,2-d]pyrimidin-4-yl)hydrazone] | 7.27 |
| CCOc1ccccc1-c1sc2c(NN=Cc3ccc(N(C)C)cc3)ncnc2c1O [Compound 133, 4-N,N-Dimethylaminobenzaldehyde (6-(2-ethoxyphenyl)-7-hydroxythieno[3,2-d]pyrimidin-4-yl)hydrazone] | 8.21 |
| CCOc1ccccc1-c1sc2c(NN=Cc3ccc(N(C)C)cc3)ncnc2c1C#N [compound 131] | 6.89 |
| CCOc1ccccc1-c1sc2c(NN=Cc3ccc(OC)c(O)c3)ncnc2c1OCCN1CCOCC1 [Compound 41, 3-Hydroxy-4-methoxybenzaldehyde (6-(2-ethoxyphenyl)-7-(2-(morpholin-4-yl)-ethoxy)thieno[3,2-d]pyrimidin-4-yl)hydrazone] | 6.47 |
| CCOc1ccccc1-c1sc2c(NN=Cc3ccsc3)ncnc2c1C#N [compound 91] | 9.24 |
| CCOc1ccccc1-c1sc2c(NN=Cc3ccc(F)cc3)ncnc2c1C#N [compound 135] | 8.40 |

| Compound | pIC50 |
| --- | --- |
| COc1ccc(C=NNc2ncnc3c(C)c(-c4ccc(CN)cc4)sc23)cc1O [Compound 5, 3-Hydroxy-4-methoxybenzaldehyde (6-(4-aminomethyl)phenyl-7-methylthieno[3,2-d]pyrimidin-4-yl)hydrazone] | 7.49 |
| CCOc1ccccc1-c1sc2c(NN=Cc3c[nH]c(=O)[nH]c3=O)ncnc2c1C#N [compound 111] | 7.92 |
| Cc1c(-c2cccc(C(=N)N)c2)sc2c(NN=Cc3cccnc3)ncnc12 [Compound 32] | 7.39 |
| COc1ccc(C=NNc2ncnc3c(C)c(-c4ccccc4C#N)sc23)cc1O [Compound 31, 3-Hydroxy-4-methoxybenzaldehyde (6-(2-cyanophenyl)-7-methylthieno[3,2-d]pyrimidin-4-yl)hydrazone] | 7.13 |
| Cc1nc[nH]c1C=NNc1ncnc2c(C)c(CN3CCOCC3)sc12 [Compound 16, 4-Methyl-5-imidazolecarboxaldehyde (7-methyl-6-(morpholin-4-yl)methyllthieno[3,2-d]pyrimidin-4-yl)hydrazone] | 6.21 |
| Cc1c(-c2ccccc2OCc2ccccc2)sc2c(NN=Cc3cccnc3)ncnc12 [Compound 82, 3-Pyridinecarboxaldehyde (6-(2-benzyloxyphenyl)-7-methylthieno[3,2-d]pyrimidin-4-yl)hydrazone] | 5.41 |
| 4-Carboxybenzaldehyde (6-(4-aminomethyl)phenyl-7-methylthieno[3,2-d]pyrimidin-4-yl)hydrazone [Compound 2] | 7.62 |
| CCOc1ccccc1-c1sc2c(NN=Cc3cccs3)ncnc2c1CO [Compound 71, 2-Thiophenecarboxaldehyde (6-(2-ethoxyphenyl)-7-hydroxymethylthieno[3,2-d]pyrimidin-4-yl)hydrazone] | 7.55 |
| CCOc1ccccc1-c1sc2c(NN=Cc3cccc(C(=O)O)c3)ncnc2c1C#N [compound 114] | 8.49 |
| Cc1c(-c2ccc(N)cc2)sc2c(NN=Cc3cccnc3)ncnc12 [Compound 8, 3-Pyridinecarboxaldehyde (6-(4-aminophenyl)-7-methylthieno[3,2-d]pyrimidin-4-yl)hydrazone] | 8.02 |
| CCOc1ccccc1-c1sc2c(NN=Cc3ccc(C(=O)O)cc3)ncnc2c1O [Compound 74, 4-Carboxybenzaldehyde (6-(2-ethoxyphenyl)-7-hydroxythieno[3,2-d]pyrimidin-4-yl)hydrazone] | 9.54 |
| CCOc1ccccc1-c1sc2c(NN=Cc3ncc[nH]3)ncnc2c1O [Compound 97, 2-Imidazolecarboxaldehyde (6-(2-ethoxyphenyl)-7-hydroxythieno[3,2-d]pyrimidin-4-yl)hydrazone] | 7.26 |
| Cc1c(-c2cccc(C#N)c2)sc2c(NN=Cc3cccs3)ncnc12 [Compound 28, 2-Thiophenecarboxaldehyde (6-(3-cyanophenyl)-7-methylthieno[3,2-d]pyrimidin-4-yl)hydrazone] | 5.85 |
| COc1ccc(C=NNc2ncnc3c(C)c(-c4cccc(C(N)=O)c4)sc23)cc1O [Compound 19, 3-Hydroxy-4-methoxybenzaldehyde (6-(3-aminocarbonylphenyl)-7-methylthieno[3,2-d]pyrimidin-4-yl)hydrazone] | 7.85 |
| CCOc1ccccc1-c1sc2c(NN=Cc3ccc(OC)cc3OC)ncnc2c1C [Compound 79, 2,4-Dimethoxybenzaldehyde (6-(2-ethoxyphenyl)-7-methylthieno[3,2-d]pyrimidin-4-yl)hydrazone] | 6.60 |
| CCOc1ccccc1-c1sc2c(NN=Cc3cccnc3)ncnc2c1O [Compound 73, 3-Pyridinecarboxaldehyde (6-(2-ethoxyphenyl)-7-hydroxythieno[3,2-d]pyrimidin-4-yl)hydrazone] | 8.52 |
